{"source": "patent US9695155B2", "about": "“Herbicidal substituted pyrimidinyloxy benzene compounds” (E. I. DU PONT DE NEMOURS AND COMPANY, priority 2013, dated 2017)", "key": {"[1]": {"tested_on": "morningglory", "test": "Test A preemergence", "type": "in vivo, Ipomoea spp.", "method_in_brief": "(§1)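 Visual 0–100 rating (100 = complete control) taken about 10 d post-treatment relative to untreated checks. Preemergence: directed soil spray on sown loam/sand pots. Postemergence: seedlings 2–10 cm, 1–2 leaf. Non-phytotoxic solvent formulation with surfactant.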"}, "[2]": {"tested_on": "corn", "test": "Test A preemergence", "type": "in vivo, Zea mays", "method_in_brief": "as §1"}, "[3]": {"tested_on": "barnyardgrass", "test": "Test C postemergence", "type": "in vivo, Echinochloa crus-galli", "method_in_brief": "(§2)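 Visual ratings on a 0–100 scale (100 = complete control) were made versus untreated controls after 13–15 greenhouse days. Chemicals in a surfactant-containing non-phytotoxic solvent were applied either preemergence to seeds in loam–sand soil or postemergence to 1- to 4-leaf plants 2–18 cm tall.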"}, "[4]": {"tested_on": "kochia", "test": "Test C postemergence", "type": "in vivo, Kochia scoparia", "method_in_brief": "as §2"}, "[5]": {"tested_on": "oilseed rape", "test": "Test C postemergence", "type": "in vivo, Brassica napus", "method_in_brief": "as §2"}, "[6]": {"tested_on": "wheat", "test": "Test A preemergence", "type": "in vivo, Triticum aestivum", "method_in_brief": "as §1"}, "[7]": {"tested_on": "johnsongrass", "test": "Test C postemergence", "type": "in vivo, Sorghum halepense", "method_in_brief": "as §2"}, "[8]": {"tested_on": "morningglory", "test": "Test A postemergence", "type": "in vivo, Ipomoea spp.", "method_in_brief": "as §1"}, "[9]": {"tested_on": "barnyardgrass", "test": "Test A preemergence", "type": "in vivo, Echinochloa crus-galli", "settings": "for Barnyardgrass plant response rating: 500 g ai/ha", "method_in_brief": "as §1"}, "[10]": {"tested_on": "morningglory", "test": "Test C postemergence", "type": "in vivo, Ipomoea coccinea", "method_in_brief": "as §2"}, "[11]": {"tested_on": "blackgrass", "test": "Test C postemergence", "type": "in vivo, Alopecurus myosuroides", "method_in_brief": "as §2"}, "[12]": {"tested_on": "large (Lg) crabgrass", "test": "Test C postemergence", "type": "in vivo, Digitaria sanguinalis", "method_in_brief": "as §2"}, "[13]": {"tested_on": "wheat", "test": "Test A postemergence", "type": "in vivo, Triticum aestivum", "method_in_brief": "as §1"}, "[14]": {"tested_on": "yellow nutsedge", "test": "Test C postemergence", "type": "in vivo, Cyperus esculentus", "method_in_brief": "as §2"}, "[15]": {"tested_on": "sedge, umbrella", "test": "Test B flooded paddy test", "type": "in vivo, Cyperus difformis", "settings": "Flood, 250 g ai/ha; 0 to 100 scale where 0 is no effect and 100 is complete control", "method_in_brief": "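Compound added straight to paddy water, with pots kept flooded 3 cm above soil, on plants grown to the 2-leaf stage. Visual scoring 0-100 (100 = complete control) against untreated controls after 13 to 15 greenhouse days.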"}, "[16]": {"settings": "125 g ai/ha, 0 to 100 scale where 0 is no effect and 100 is complete control"}, "[17]": {"settings": "500 g ai/ha, 0 to 100 scale, 0 no effect, 100 complete control, approx. 10 days"}, "[18]": {"settings": "Postemergence, 31 g ai/ha, scale 0 to 100 (0 no effect, 100 complete control), 13 to 15 days"}, "[19]": {"settings": "Postemergence, 62 g ai/ha, scale 0 to 100 (0 no effect, 100 complete control)"}, "[20]": {"settings": "500 g ai/ha, 0 to 100 scale, 0 no effect, 100 complete control"}, "[21]": {"settings": "16 g ai/ha, postemergence, 0 is no effect, 100 is complete control"}, "[22]": {"settings": "31 g ai/ha, postemergence, visual rating, scale 0 to 100 (0 no effect, 100 complete control), 13 to 15 days"}, "[23]": {"settings": "125 g ai/ha, postemergence, visual rating, scale 0 to 100 (0 no effect, 100 complete control)"}, "[24]": {"settings": "Postemergence, 62 g ai/ha, scale 0 to 100 (0 no effect, 100 complete control), 13 to 15 days"}}}
{"smiles": "Fc1cnc(Oc2ccccc2-n2cc(C(F)(F)F)cn2)nc1", "note": "[Compound 47]", "values": [{"measurement": "Plant response rating, Morningglory", "setting": "[1]; [16]", "result": 0}, {"measurement": "Morningglory plant response rating", "setting": "[1]; [17]", "result": 100}, {"measurement": "Plant response rating, Corn", "setting": "[2]; [16]", "result": 0}, {"measurement": "Corn plant response rating", "setting": "[2]; [17]", "result": 90}, {"measurement": "Plant response rating (0 to 100), Barnyardgrass", "setting": "[3]; 125 g ai/ha, postemergence", "result": 0}, {"measurement": "Plant response rating (0 to 100), Barnyardgrass", "setting": "[3]; 250 g ai/ha, postemergence", "result": 5}, {"measurement": "Plant response rating, Barnyardgrass", "setting": "[3]; [18]", "result": 0}, {"measurement": "Plant response rating, Barnyardgrass", "setting": "[3]; [19]", "result": 0}, {"measurement": "Plant response rating (0 to 100), Kochia", "setting": "[4]; 125 g ai/ha, postemergence", "result": 25}, {"measurement": "Plant response rating (0 to 100), Kochia", "setting": "[4]; 250 g ai/ha, postemergence", "result": 60}, {"measurement": "Plant response rating, Kochia", "setting": "[4]; [18]", "result": 5}, {"measurement": "Plant response rating, Kochia", "setting": "[4]; [19]", "result": 10}, {"measurement": "Plant response rating (0 to 100), Oilseed Rape", "setting": "[5]; 125 g ai/ha, postemergence", "result": 55}, {"measurement": "Plant response rating (0 to 100), Oilseed Rape", "setting": "[5]; 250 g ai/ha, postemergence", "result": 55}, {"measurement": "Plant response rating, Oilseed Rape", "setting": "[5]; [18]", "result": 15}, {"measurement": "Plant response rating, Oilseed Rape", "setting": "[5]; [19]", "result": 50}, {"measurement": "Plant response rating, Wheat", "setting": "[6]; [16]", "result": 0}, {"measurement": "Wheat plant response rating", "setting": "[6]; [17]", "result": 40}, {"measurement": "Plant response rating (0 to 100), Johnsongrass", "setting": "[7]; 125 g ai/ha, postemergence", "result": 5}, {"measurement": "Plant response rating (0 to 100), Johnsongrass", "setting": "[7]; 250 g ai/ha, postemergence", "result": 5}, {"measurement": "Plant response rating, Johnsongrass", "setting": "[7]; [18]", "result": 0}, {"measurement": "Plant response rating, Johnsongrass", "setting": "[7]; [19]", "result": 5}, {"measurement": "Plant response rating, Morningglory", "setting": "[8]; [16]", "result": 80}, {"measurement": "Plant response rating, Morningglory", "setting": "[8]; [20]", "result": 100}, {"measurement": "Plant response rating, Barnyardgrass", "setting": "[9]; [16]", "result": 20}, {"measurement": "Barnyardgrass plant response rating", "setting": "[9]; 0 to 100 scale, 0 no effect, 100 complete control, approx. 10 days", "result": 100}, {"measurement": "Plant response rating (0 to 100), Morningglory", "setting": "[10]; 125 g ai/ha, postemergence", "result": 70}, {"measurement": "Plant response rating (0 to 100), Morningglory", "setting": "[10]; 250 g ai/ha, postemergence", "result": 75}, {"measurement": "Plant response rating, Morningglory", "setting": "[10]; [18]", "result": 20}, {"measurement": "Plant response rating, Morningglory", "setting": "[10]; [19]", "result": 70}, {"measurement": "Plant response rating (0 to 100), Blackgrass", "setting": "[11]; 125 g ai/ha, postemergence", "result": 5}, {"measurement": "Plant response rating (0 to 100), Blackgrass", "setting": "[11]; 250 g ai/ha, postemergence", "result": 40}, {"measurement": "Plant response rating, Blackgrass", "setting": "[11]; [18]", "result": 0}, {"measurement": "Plant response rating, Blackgrass", "setting": "[11]; [19]", "result": 0}, {"measurement": "Plant response rating (0 to 100), Crabgrass, Large", "setting": "[12]; 125 g ai/ha, postemergence", "result": 5}, {"measurement": "Plant response rating (0 to 100), Crabgrass, Large", "setting": "[12]; 250 g ai/ha, postemergence", "result": 10}, {"measurement": "Plant response rating, Crabgrass, Large", "setting": "[12]; [18]", "result": 5}, {"measurement": "Plant response rating, Crabgrass, Large", "setting": "[12]; [19]", "result": 5}, {"measurement": "Plant response rating, Wheat", "setting": "[13]; [16]", "result": 60}, {"measurement": "Plant response rating, Wheat", "setting": "[13]; [20]", "result": 100}, {"measurement": "Plant response rating (0 to 100), Nutsedge, Yellow", "setting": "[14]; 125 g ai/ha, postemergence", "result": 0}, {"measurement": "Plant response rating (0 to 100), Nutsedge, Yellow", "setting": "[14]; 250 g ai/ha, postemergence", "result": 10}, {"measurement": "Plant response rating, Nutsedge, Yellow", "setting": "[14]; [18]", "result": 0}, {"measurement": "Plant response rating, Nutsedge, Yellow", "setting": "[14]; [19]", "result": 0}, {"measurement": "Plant response rating, Sedge, Umbrella", "setting": "[15]", "result": 70}]}
{"smiles": "N#Cc1cn(-c2c(C#N)cccc2Oc2ncc(Cl)cn2)nn1", "note": "[Compound 273]", "values": [{"measurement": "Plant response rating (0 to 100), Barnyardgrass", "setting": "[3]; [21]", "result": 5}, {"measurement": "Barnyardgrass plant response rating", "setting": "[3]; [22]", "result": 5}, {"measurement": "Plant response rating, Barnyardgrass", "setting": "[3]; [23]", "result": 10}, {"measurement": "Plant response rating, Barnyardgrass", "setting": "[3]; [24]", "result": 5}, {"measurement": "Plant response rating (0 to 100), Kochia", "setting": "[4]; [21]", "result": 70}, {"measurement": "Kochia plant response rating", "setting": "[4]; [22]", "result": 65}, {"measurement": "Plant response rating, Kochia", "setting": "[4]; [23]", "result": 95}, {"measurement": "Plant response rating, Kochia", "setting": "[4]; [24]", "result": 80}, {"measurement": "Plant response rating (0 to 100), Oilseed Rape", "setting": "[5]; [21]", "result": 0}, {"measurement": "Oilseed Rape plant response rating", "setting": "[5]; [22]", "result": 0}, {"measurement": "Plant response rating, Oilseed Rape", "setting": "[5]; [23]", "result": 25}, {"measurement": "Plant response rating, Oilseed Rape", "setting": "[5]; [24]", "result": 5}, {"measurement": "Plant response rating (0 to 100), Johnsongrass", "setting": "[7]; [21]", "result": 0}, {"measurement": "Johnsongrass plant response rating", "setting": "[7]; [22]", "result": 0}, {"measurement": "Plant response rating, Johnsongrass", "setting": "[7]; [23]", "result": 5}, {"measurement": "Plant response rating, Johnsongrass", "setting": "[7]; [24]", "result": 5}, {"measurement": "Barnyardgrass plant response rating (0 to 100 scale, 0 is no effect, 100 is complete control)", "setting": "[9]; 125 g ai/ha", "result": 70}, {"measurement": "Barnyardgrass plant response rating", "setting": "[9]; 0 to 100 scale where 0 is no effect and 100 is complete control", "result": 90}, {"measurement": "Plant response rating (0 to 100), Morningglory", "setting": "[10]; [21]", "result": 60}, {"measurement": "Morningglory plant response rating", "setting": "[10]; [22]", "result": 65}, {"measurement": "Plant response rating, Morningglory", "setting": "[10]; [23]", "result": 85}, {"measurement": "Plant response rating, Morningglory", "setting": "[10]; [24]", "result": 65}, {"measurement": "Plant response rating (0 to 100), Blackgrass", "setting": "[11]; [21]", "result": 5}, {"measurement": "Blackgrass plant response rating", "setting": "[11]; [22]", "result": 5}, {"measurement": "Plant response rating, Blackgrass", "setting": "[11]; [23]", "result": 10}, {"measurement": "Plant response rating, Blackgrass", "setting": "[11]; [24]", "result": 10}, {"measurement": "Plant response rating (0 to 100), Crabgrass, Large", "setting": "[12]; [21]", "result": 5}, {"measurement": "Crabgrass, Large plant response rating", "setting": "[12]; [22]", "result": 5}, {"measurement": "Plant response rating, Crabgrass, Large", "setting": "[12]; [23]", "result": 10}, {"measurement": "Plant response rating, Crabgrass, Large", "setting": "[12]; [24]", "result": 10}, {"measurement": "Plant response rating, Wheat", "setting": "[13]; 125 g ai/ha, 0 to 100 scale, 0 no effect, 100 complete control", "result": 10}, {"measurement": "Plant response rating, Wheat", "setting": "[13]; 500 g ai/ha, 0 to 100 scale where 0 is no effect and 100 is complete control", "result": 50}, {"measurement": "Plant response rating (0 to 100), Nutsedge, Yellow", "setting": "[14]; [21]", "result": 10}, {"measurement": "Nutsedge, Yellow plant response rating", "setting": "[14]; [22]", "result": 5}, {"measurement": "Plant response rating, Nutsedge, Yellow", "setting": "[14]; [23]", "result": 25}, {"measurement": "Plant response rating, Nutsedge, Yellow", "setting": "[14]; [24]", "result": 5}, {"measurement": "Plant response rating, Sedge, Umbrella", "setting": "[15]", "result": 75}]}
